In article PMC12254266, “Multicolored sequential resonance energy transfer for detection of simultaneous ligand binding at G protein-coupled receptors” (Nature Communications, 2025):
Several values for one entry are separate records, joined by “and”; a condition that tells them apart may be missing. Identical values can stand only once.

Target: FFA1-Nluc (Homo sapiens, UniProt O14842)
Assay: Ca2+ mobilisation antagonism of FFA1 agonists (TUG-905, T360) in Flp-In T-REx 293 cells expressing FFA1-Nluc
Type: cell-based
Parameters: expressed in transfected cells
Procedure: Nluc-FFA1, FFA1-Nluc or untagged FFA1 Flp-In T-REx 293 cells were plated at 50,000 cells per well in poly-D-lysine coated black clear bottom 96-well plates. Cells were then cultured for 24 h until reaching confluency before culture medium was replaced with medium containing 100 ng/mL of doxycycline to induce receptor expression. Cells were cultured for a further 24 h before the assay. On the day of the assay culture medium was removed and replaced with medium containing 3 μM Fura2-AM Ca^2+ dye. […] Fura2 fluorescent emission at 520 nm following excitation with each of 340 and 380 nm was measured in regular intervals both before and after adding test compounds for a total of 90 s per well. Calcium responses were determined by taking the peak 340/380 ratio after first subtracting the ratios obtained prior to addition of test compound. […]
Ca2+ mobilization responses were measured in
Flp-In T-REx 293 cells expressing FFA1-Nluc. Ca2+ responses to increasing concentrations
pre-treated with 10 μM PPTQ. The mode of antagonism for PPTQ was assessed by
N=3 (A-D, F, H) or N=4 (E, G) independent experiments. S ource data are provided as a […]

Chain of FFA1-Nluc (O14842 whole entry): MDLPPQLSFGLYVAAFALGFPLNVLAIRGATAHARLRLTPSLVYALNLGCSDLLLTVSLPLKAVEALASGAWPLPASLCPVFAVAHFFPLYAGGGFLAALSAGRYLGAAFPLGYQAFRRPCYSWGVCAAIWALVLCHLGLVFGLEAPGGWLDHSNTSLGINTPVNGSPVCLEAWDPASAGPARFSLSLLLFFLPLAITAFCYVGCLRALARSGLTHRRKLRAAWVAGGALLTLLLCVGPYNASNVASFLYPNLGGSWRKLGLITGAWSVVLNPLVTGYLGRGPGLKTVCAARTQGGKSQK

Ca2% Response (%) (log[T360] -8, 10 μΜ (antagonist not given), Sup Figure 6F): 1.71% and -1.05% and -0.90%
Ca2% Response (%) (log[T360] -8, column head 1.0 μM (antagonist not given), Sup Figure 6F): -0.81% and -3.31% and 3.71% and 5.53%
SMILES: COc1ccc(CCCC(C)(C)C)c(N2CCC(COc3cccc(C(CC(=O)O)C4CC4)c3)CC2)c1.O=C(O)C(F)(F)F (stereo not shown) [T360]
Ca2% Response (%) (log[T360] -5, Veh (no antagonist), Sup Figure 6B/6D): 93.75% and 106.25% and 103.05% and 96.95%
Ca2% Response (%) (log[T360] -5, with 1 μM GW1100): 103.36% and 82.58% and 106.13% and 87.84% and 101.04% and 85.87%
Ca2% Response (%) (log[T360] -6, 10 μΜ (antagonist not given), Sup Figure 6F): 76.18% and 67.98% and 49.56% and 55.62% and 87.66% and 92.64%
Ca2% Response (%) (log[T360] -6, Veh (no antagonist), Sup Figure 6B/6D): 104.34% and 101.89% and 110.55% and 104.28% and 99.18% and 100.82%
Ca2% Response (%) (log[T360] -6, Veh (no antagonist), Sup Figure 6F): 99.06% and 95.34% and 97.85% and 90.61% and 102.43% and 99.32%
Ca2% Response (%) (log[T360] -6, column head 1.0 μM (antagonist not given), Sup Figure 6F): 76.88% and 59.19% and 87.71% and 76.79% and 92.25% and 102.12%
Ca2% Response (%) (log[T360] -6, with 1 μM GW1100): 91.67% and 83.66% and 88.97% and 81.49% and 113.97% and 109.62%
Ca2% Response (%) (log[T360] -6.5, Veh (no antagonist), Sup Figure 6F): 94.10% and 96.59% and 92.66% and 91.86% and 93.32% and 89.24%
Ca2% Response (%) (log[T360] -6.5, column head 1.0 μM (antagonist not given), Sup Figure 6F): 60.34% and 48.04% and 59.96% and 55.53% and 61.67% and 49.63%
Ca2% Response (%) (log[T360] -7, Veh (no antagonist), Sup Figure 6B/6D): 82.83% and 93.76% and 57.76% and 86.64% and 99.93%
Ca2% Response (%) (log[T360] -7, Veh (no antagonist), Sup Figure 6F): 93.07% and 80.87% and 91.43% and 68.96% and 59.63% and 63.91%
Ca2% Response (%) (log[T360] -7, column head 1.0 μM (antagonist not given), Sup Figure 6F): 3.96% and 7.11% and 12.73% and 6.84% and 9.24% and 5.08%
Ca2% Response (%) (log[T360] -9, Veh (no antagonist), Sup Figure 6B/6D): 2.38% and -2.45% and 0.48% and 0.09% and -1.34% and 1.34%
Ca2% Response (%) (log[T360] -11, Veh (no antagonist), Sup Figure 6B/6D): -3.34% and -2.39% and -1.53% and 0.46% and 1.72% and -0.55%
